Experimental data: US3962317A, “D-3,6-Diaminohexanoic acid 2-(carboxymethyl)-2-methylhydrazide, process of preparing and intermediates of said process” (priority 1974, dated 1976)
Values after ≈ are worked out from the molar mass of the structure shown.

Columns and labels:
[1] = system: Mycobacterium smegmatis ATCC 606; experiment: Zone of inhibition, standard agar well diffusion assay; type: cell-based
Method: (§1) In this assay, the minimal inhibitory concentration (MIC) was determined by using twofold dilutions of the compound in nutrient agar. One ml. of each dilution was placed in a sterile Petri dish; 9 ml. of nutrient agar was added to each dish. Five hour cultures of the indicated organism in Trypticase Soy Broth were diluted 10^^-2 in nutrient broth. This dilution of each culture was transferred to the surface of the plates by using a Steers replicating device. […] The MIC of D-3,6-diaminohexanoic acid 2-(carboxymethyl)-2 -methylhydrazide against the indicated organisms are set forth in Table I below.
(§2) In another representative operation, the standard agar well diffusion assay was repeated with D-3,6-diaminohexanoic acid 2-(carboxymethyl)-2-methylhydrazide except that after incubation the zone of inhibition against the indicated organism is millimeters was determined.

[2] = system: Cryptococcus neoformans E 183; experiment: as above; type: cell-based
Method: as §1, §2

[3] = system: Salmonella typhosa ATCC 6539; experiment: as above; type: cell-based
Method: as §1, §2

[4] = system: Pseudomonas aeruginosa ATCC 10145; experiment: as above; type: cell-based
Method: as §1, §2

Klebsiella pneumoniae AD [5] = experiment: as above; type: cell-based
Method: as §1, §2

Candida albicans E 83 = experiment: as above; type: cell-based
Method: as §1, §2

[6] = system: Enterobacter aerogenes 75; experiment: as above; type: cell-based
Method: as §1, §2

[7] = system: Trichophyton mentagrophytes E11; experiment: as above; type: cell-based
Method: as §1, §2

Escherichia coli 311 [8] = experiment: as above; type: cell-based
Method: as §1, §2

[9] = system: Staphylococcus aureus Rose ATCC 14154; experiment: as above; type: cell-based
Method: as §1, §2

[10] = system: Microsporum canis ATCC 10214; experiment: as above; type: cell-based
Method: as §1, §2

[11] = system: Proteus vulgaris ATCC 9484; experiment: as above; type: cell-based
Method: as §1, §2

[12] = system: Trichophyton tonsurans NIH 662; experiment: as above; type: cell-based
Method: as §1, §2

[13] = system: standard laboratory microorganisms; experiment: Standard agar well diffusion assay against a variety of standard laboratory microorganisms; type: cell-based
Escherichia coli 311 [14] = experiment: Systemic lethal infection in mice, Escherichia coli 311; type: in vivo, Charles River CD1 female mice; settings: for Alive/Total Mice Tested 7 Days After Infection: immediately after infection
Method: (§3) The infections were administered to the mice as follows:
Escherichia coli 311: intraperitoneal infection of a lethal dose consisting of 0.5 ml. of a 10^^-3 trypticase soy dilution of a 5 hour trypticase soy broth culture.
(§4) The D-3,6-diaminohexanoic acid 2-(carboxymethyl)-2-methylhydrazide was administered as follows:
Escherichia coli 311: 0.5 ml. dose suspended in 0.2% aqueous agar was administered to groups of Charles River CD1 female mice, weighing 18-22 gm., immediately after infection at the levels indicated in Table III below.

[15] = system: Shigella flexneri (5) Citarella; experiment: MIC, agar dilution (called standard agar well diffusion assay); type: cell-based; settings: nutrient agar, 37°C, 24 hours
Method: as §1

[16] = system: Pseudomonas aeruginosa PA7; experiment: as above; type: cell-based; settings: nutrient agar, 37°C, 24 hours
Method: as §1

Escherichia coli No. 311 = experiment: as above; type: cell-based; settings: nutrient agar, 37°C, 24 hours
Method: as §1

[17] = system: Klebsiella pneumoniae K-1972-2; experiment: as above; type: cell-based; settings: K19722, nutrient agar, 37°C, 24 hours
Method: as §1

[18] = system: Enterobacter sp. K-1972-1; experiment: as above; type: cell-based; settings: SP.K19721, nutrient agar, 37°C, 24 hours
Method: as §1

[19] = system: Salmonella typhimurium K-1972; experiment: as above; type: cell-based; settings: Salmonella enterica, nutrient agar, 37°C, 24 hours
Method: as §1

[20] = system: Serratia marcescens Finland; experiment: as above; type: cell-based; settings: nutrient agar, 37°C, 24 hours
Method: as §1

[21] = system: Shigella flexneri (2a) RB; experiment: as above; type: cell-based; settings: nutrient agar, 37°C, 24 hours
Method: as §1

Klebsiella pneumoniae AD [22] = experiment: as above; type: cell-based; settings: nutrient agar, 37°C, 24 hours
Method: as §1

[23] = system: Escherichia coli K-1972-1; experiment: as above; type: cell-based; settings: K19721, nutrient agar, 37°C, 24 hours
Method: as §1

[24] = system: Herellea vaginicola Hughes; experiment: as above; type: cell-based; settings: nutrient agar, 37°C, 24 hours
Method: as §1

[25] = system: Proteus mirabilis K-1972-12; experiment: as above; type: cell-based; settings: K197212, nutrient agar, 37°C, 24 hours
Method: as §1

Proteus vulgaris K-1972 = experiment: as above; type: cell-based; settings: K1972, nutrient agar, 37°C, 24 hours
Method: as §1

[26] = system: Proteus mirabilis No. 4361; experiment: as above; type: cell-based; settings: nutrient agar, 37°C, 24 hours
Method: as §1

[27] = system: Enterococcus (S. faecalis) Isenberg; experiment: as above; type: cell-based; settings: nutrient agar, 37°C, 24 hours
Method: as §1

[28] = system: Staphylococcus aureus Jackson No. 4; experiment: as above; type: cell-based; settings: nutrient agar, 37°C, 24 hours
Method: as §1

[29] = system: Herellea vaginicola Washington 885-863; experiment: as above; type: cell-based; settings: nutrient agar, 37°C, 24 hours
Method: as §1

[30] = system: Salmonella enteritidis K-1972; experiment: as above; type: cell-based; settings: Salmonella enterica, nutrient agar, 37°C, 24 hours
Method: as §1

[31] = system: Pseudomonas aeruginosa 12-4-4; experiment: as above; type: cell-based; settings: 1244, nutrient agar, 37°C, 24 hours
Method: as §1

[32] = system: Staphylococcus aureus Morton No. 1169; experiment: as above; type: cell-based; settings: nutrient agar, 37°C, 24 hours
Method: as §1

Serratia marcescens K132 = experiment: as above; type: cell-based; settings: nutrient agar, 37°C, 24 hours
Method: as §1

[33] = system: Proteus mirabilis K-1972-16; experiment: as above; type: cell-based; settings: K197216, nutrient agar, 37°C, 24 hours
Method: as §1

[34] = system: Escherichia coli K-1972-2; experiment: as above; type: cell-based; settings: K19722, nutrient agar, 37°C, 24 hours
Method: as §1

Proteus mirabilis 4671 = experiment: Systemic lethal infection in mice, Proteus mirabilis 4671; type: in vivo, Charles River CD1 female mice; settings: for Alive/Total Mice Tested 7 Days After Infection: 1 day prior to and immediately after infection
Method: as §3
Proteus mirabilis 4671: intraperitoneal injection of a lethal dose consisting of 0.5 ml. of a 10^^-1.6 trypticase soy dilution of a 5 hour trypticase soy broth culture.
as §4
Proteus mirabilis 4671: 0.5 ml. dose suspended in 0.2% aqueous agar was administered to groups of Charles River CD1 female mice, weighing 18-22 gm., 1 day prior to infection and then in a second dose immediately after infection at the levels indicated in Table III below.

SMILES: CN(CC(=O)O)NC(=O)C[C@H](N)CCCN [D-3,6-diaminohexanoic acid 2-(carboxymethyl)-2-methylhydrazide]
- Zone of Inhibition [1]: 100 mm.
- Zone of Inhibition [2]: 10 mm.
- Zone of Inhibition [3]: 25 mm.
- Zone of Inhibition [4]: 50 mm.
- Zone of Inhibition (Klebsiella pneumoniae AD [5]): 10 mm.
- Zone of Inhibition (Candida albicans E 83): 50 mm.
- Zone of Inhibition [6]: 50 mm.
- Zone of Inhibition [7]: 100 mm.
- Zone of Inhibition (Escherichia coli 311 [8]): 25 mm.
- Zone of Inhibition [9]: 100 mm.
- Zone of Inhibition [10]: 250 mm.
- Zone of Inhibition [11]: 25 mm.
- Zone of Inhibition [12]: 25 mm.
- antibacterial and antifungal activity in vitro [13]: broad-spectrum antibacterial and antifungal activity in vitro
- Alive/Total Mice Tested 7 Days After Infection (Escherichia coli 311 [14]; 4 mg./kg. subcutaneous): 0/5
- Alive/Total Mice Tested 7 Days After Infection (Escherichia coli 311 [14]; 8 mg./kg. subcutaneous): 0/5
- Alive/Total Mice Tested 7 Days After Infection (Escherichia coli 311 [14]; 16 mg./kg. subcutaneous): 0/5
- Alive/Total Mice Tested 7 Days After Infection (Escherichia coli 311 [14]; 32 mg./kg. subcutaneous): 3/5
- Alive/Total Mice Tested 7 Days After Infection (Escherichia coli 311 [14]; 64 mg./kg. subcutaneous): 5/5
- in vivo activity against systemic lethal infection (Escherichia coli 311 [14]; Escherichia coli infection in mice): controlled systemic lethal infections
- MIC [15]: 64 µg/mL (≈ 276 µM)
- MIC [16]: 64 µg/mL (≈ 276 µM)
- MIC (Escherichia coli No. 311): 16 µg/mL (≈ 68.9 µM)
- MIC [17]: 32 µg/mL (≈ 138 µM)
- MIC [18]: 32 µg/mL (≈ 138 µM)
- MIC [19]: 32 µg/mL (≈ 138 µM)
- MIC [20]: 64 µg/mL (≈ 276 µM)
- MIC [21]: 4 µg/mL (≈ 17.2 µM)
- MIC (Klebsiella pneumoniae AD [22]): 4 µg/mL (≈ 17.2 µM)
- MIC [23]: 16 µg/mL (≈ 68.9 µM)
- MIC [24]: 32 µg/mL (≈ 138 µM)
- MIC [25]: 64 µg/mL (≈ 276 µM)
- MIC (Proteus vulgaris K-1972): 64 µg/mL (≈ 276 µM)
- MIC [26]: 64 µg/mL (≈ 276 µM)
- MIC [27]: > 128 µg/mL
- MIC [28]: 64 µg/mL (≈ 276 µM)
- MIC [29]: 32 µg/mL (≈ 138 µM)
- MIC [30]: 32 µg/mL (≈ 138 µM)
- MIC [31]: 64 µg/mL (≈ 276 µM)
- MIC [32]: 32 µg/mL (≈ 138 µM)
- MIC (Serratia marcescens K132): 32 µg/mL (≈ 138 µM)
- MIC [33]: 64 µg/mL (≈ 276 µM)
- MIC [34]: 16 µg/mL (≈ 68.9 µM)
- Alive/Total Mice Tested 7 Days After Infection (Proteus mirabilis 4671; 64 mg./kg. subcutaneous): 5/5
- Alive/Total Mice Tested 7 Days After Infection (Proteus mirabilis 4671; 128 mg./kg. subcutaneous): 5/5
- Alive/Total Mice Tested 7 Days After Infection (Proteus mirabilis 4671; 256 mg./kg. subcutaneous): 5/5
- in vivo activity against systemic lethal infection (Proteus mirabilis 4671; Proteus mirabilis infection in mice): controlled systemic lethal infections
